What was measured:
Type in all cases: binding
[1] = target: T1, H3K4 peptide (unmethylated) (Homo sapiens, UniProt P68431); assay: fluorescence indicator displacement assay, solution-phase affinity for H3K4 peptide; conditions: for Kd: 10 mM phosphate buffer at pH 7.4, average of triplicate determinations, indicator displacement assay, read-out: Solution-phase equilibrium dissociation constant (Kd), H3K4; for binding to unmethylated controls (in words): solution phase, relative to methylated peptides
T1 construct: H3 1-7=H2N-ARTKQTAY-COOH; made in house; host or cells: chemical solid-phase peptide synthesis
Description: (§1) In this example, the activity of various compound embodiments described herein were evaluated. A calixarene parent compound and compounds 502 and 404 were evaluated. Compound 502 was used has an upper-rim aryl group attached via sulfonamide linkage, and also includes a distal carboxy group for conjugation to solid-phase supports. The solution-phase affinities of a calixarene parent compound, and compounds 502 and 404 were determined for various methyllysine and methylarginine containing peptides by fluorescence indicator displacement assay (Table 1).
(§2) All values were determined in 10 mM phosphate buffer at pH 7.4 and are averages of triplicate determinations by an indicator displacement assay.

H3K4me peptide = target: T2, H3K4me peptide (Homo sapiens, UniProt P68431); assay: fluorescence indicator displacement assay, solution-phase affinity for H3K4me peptide; conditions: 10 mM phosphate buffer at pH 7.4, average of triplicate determinations, read-out: Solution-phase equilibrium dissociation constant (Kd), H3K4me
T2 construct: H3 1-7=H2N-ARTKQTAY-COOH; made in house; host or cells: chemical solid-phase peptide synthesis
Description: as §1, §2

H3K4me2 peptide = target: T3, H3K4me2 peptide (Homo sapiens, UniProt P68431); assay: fluorescence indicator displacement assay, solution-phase affinity for H3K4me2 peptide; conditions: for Kd: 10 mM phosphate buffer at pH 7.4, average of triplicate determinations, read-out: Solution-phase equilibrium dissociation constant (Kd), H3K4me2; for affinity for Kme2-containing peptides (in words): solution phase
T3 construct: H3 1-7=H2N-ARTKQTAY-COOH; made in house; host or cells: chemical solid-phase peptide synthesis
Description: as §1, §2

H3K4me3 peptide = target: T4, H3K4me3 peptide; assay: fluorescence indicator displacement assay, solution-phase affinity for H3K4me3 peptide
T4 construct: other: solution phase, indicator displacement assay; fused on or other part: C-terminal Tyr added to read concentration by A280; trimethyl-lysine (a PTM)
Description: as §1, §2

H3K4ac peptide = target: T5, H3K4ac peptide (Homo sapiens, UniProt P68431); assay: fluorescence indicator displacement assay, solution-phase affinity for H3K4ac peptide; conditions: for Kd: 10 mM phosphate buffer at pH 7.4, average of triplicate determinations, indicator displacement assay, read-out: Solution-phase equilibrium dissociation constant (Kd), H3K4ac; for binding to Kac containing peptides (in words): solution phase, relative to methylated peptides
T5 construct: H3 1-7=H2N-ARTKQTAY-COOH; made in house; host or cells: chemical solid-phase peptide synthesis
Description: as §1, §2

H3R2me2s peptide = target: T6, H3R2me2s peptide (Homo sapiens, UniProt P68431); assay: fluorescence indicator displacement assay, solution-phase affinity for H3R2me2s peptide; conditions: 10 mM phosphate buffer at pH 7.4, average of triplicate determinations, read-out: Solution-phase equilibrium dissociation constant (Kd), H3R2me2s
T6 construct: H3 1-7=H2N-ARTKQTAY-COOH; made in house; host or cells: chemical solid-phase peptide synthesis
Description: as §1, §2

H3R2me2a peptide = target: T7, H3R2me2a peptide (Homo sapiens, UniProt P68431); assay: fluorescence indicator displacement assay, solution-phase affinity for H3R2me2a peptide; conditions: for Kd: 10 mM phosphate buffer at pH 7.4, average of triplicate determinations, read-out: Solution-phase equilibrium dissociation constant (Kd), H3R2me2a
T7 construct: H3 1-7=H2N-ARTKQTAY-COOH; made in house; host or cells: chemical solid-phase peptide synthesis
Description: as §1, §2

H3K9me3 peptide = target: T8, H3K9me3 peptide (Homo sapiens, UniProt P68431); assay: fluorescence indicator displacement assay, solution-phase affinity for H3K9me3 peptide; conditions: 10 mM phosphate buffer at pH 7.4, average of triplicate determinations, read-out: Solution-phase equilibrium dissociation constant (Kd), H3K9me3
T8 construct: H3 1-12=H2N-ARTKQTARKSTGY-COOH; made in house; host or cells: chemical solid-phase peptide synthesis
Description: as §1, §2

Kd [1] [µM] | binding to unmethylated controls (in words) [1] | Kd (H3K4me peptide) [µM] | Kd (H3K4me2 peptide) [µM] | affinity for Kme2-containing peptides (in words) (H3K4me2 peptide) | affinity for Kme3-containing peptides (in words) (H3K4me3 peptide) | Kd (H3K4ac peptide) [µM] | binding to Kac containing peptides (in words) (H3K4ac peptide) | Kd (H3R2me2s peptide) [µM] | Kd (H3R2me2a peptide) [µM] | Kd (H3K9me3 peptide) [µM] | affinity for aDMA-containing peptides (in words) (H3R2me2a peptide; solution phase) | Compound
85.5 | weaker binding | 2.3 | 0.1 | sub-micromolar | sub-micromolar | > 1000 | weaker binding | 6.62 | 1 | 1 | – | O=C(O)Cc1ccc(-c2cc3c(O)c(c2)Cc2cc(S(=O)(=O)O)cc(c2O)Cc2cc(S(=O)(=O)O)cc(c2O)Cc2cc(S(=O)(=O)O)cc(c2O)C3)cc1 [Compound 404, 5-(4-carboxymethylphenyl)-25, 26, 27, 28-tetrahydroxy-11-17-23-trisulfonatocalix[4]arene]
3.8 | weaker binding | 1.3 | 0.4 | sub-micromolar | sub-micromolar | 7.6 | weaker binding | 2.6 | 0.6 | 0.5 | sub-micromolar | O=C(O)c1ccc(S(=O)(=O)Nc2cc3c(O)c(c2)Cc2cc(S(=O)(=O)O)cc(c2O)Cc2cc(S(=O)(=O)O)cc(c2O)Cc2cc(S(=O)(=O)O)cc(c2O)C3)cc1 [Compound 502, 5-(4-carboxyphenyl)sulfonamido-25, 26, 27, 28-tetrahydroxy-11-17-23-trisulfonatocalix[4]arene]

From patent publication US10338037B2, “Compounds and conjugates for identifying and separating post-translationally modified analytes” (UVic Industry Partnerships Inc., priority 2015, dated 2019)
